Source: patent publication US11667602B2, “Compounds and their use” (AstraZeneca AB, priority 2020, dated 2023)
Converted amounts (≈) assume the structure as drawn.

Experiments:
[1] = Human Hepatocyte Stability (Test D); format: in vitro ADME; conditions: geometric mean if run multiple times; for hepatocyte CLint at 1 µM: human, cryopreserved pooled human hepatocytes (LiverPool 10-Donor)
Procedure: Human Hepatocyte Stability (Test D)
The metabolic stability of compounds in human hepatocytes was assessed using the following protocol:
1. Prepare 10 mM stock solutions of compound and control compounds in appropriate solvent (DMSO). Place incubation medium (L-15 Medium) in a 37° C. water bath, and allow warming for at least 15 minutes prior to use.
2. Add 80 μL of acetonitrile to each well of the 96-well deep well plate (“Quenching plate”).
3. In a new 96-well plate, dilute the 10 mM test compounds and the control compounds to 100 μM by combining 198 μL of acetonitrile and 2 μL of 10 mM stock solution.
4. Remove a vial of cryopreserved (less than −150° C.) human hepatocytes (LiverPool™ 10-Donor Human hepatocytes obtained from Bioreclamation IVT (Product No. S01205)) from storage, ensuring that vials remain at cryogenic temperatures until thawing process ensues. As quickly as possible, thaw the cells by placing the vial in a 37° C. water bath and gently shaking the vials. Vials should remain in water bath until all ice crystals have dissolved and are no longer visible. After thawing is complete, spray vial with 70% ethanol, transfer the vial to a bio-safety cabinet.
5. Open the vial and pour the contents into the 50 mL conical tube containing thawing medium. Place the 50 mL conical tube into a centrifuge and spin at 100 g for 10 minutes (room temperature).
6. Using Cellometer® Vision, count cells and determine the viable cell density. Cells with poor viability (<80% viability) are not acceptable for use.
7. Transfer 247.5 μL of hepatocytes into each well of a 96-well cell incubation plate. Place the plate on Eppendorf Thermomixer Comfort plate shaker to allow the hepatocytes to warm for 10 minutes.
8. Add 2.5 μL of 100 μM test compound or control compounds into an incubation well containing cells to initiate the reaction.
9. Incubate the plate at 37° C. and 900 rpm on an Eppendorf Thermomixer Comfort plate shaker.
10. Centrifuge the quenching plates for 20 minutes at 4,000 rpm. Transfer 30 μL of supernatant of each compound into a 96-well analysis plate. 4 compounds are pooled together into one cassette. Then dilute the pooled sample by adding of 180 μl of pure water. All incubations are performed in singlicate.
All calculations were carried out using Microsoft Excel. Peak areas were determined from extracted ion chromatograms. In vitro intrinsic clearance (in vitro Clint, in μL/min/10^6 cells) of parent compound was determined by regression analysis of the Ln percent parent disappearance vs. time curve. The in vitro intrinsic clearance (in vitro Clint, in μL/min/10^6 cells) reported in Table 36, and was determined from the slope value using the following equation: in vitro Clint=kV/N
V=incubation volume (0.25 mL);
N=number of hepatocytes per well (0.25×10^6 cells)
Where the assay was run multiple times for the same compound, the geometric mean is reported.

human RXFP1 = molecular target: T1, human RXFP1 (Homo sapiens, UniProt Q9HBX9); assay: RXFP1 Hu cAMP (Test A); format: cell-based; design: expressed in transfected cells; host or cells: Jump-In T-REx CHO-K1 cells (ThermoFisher), induced with 10 ng/ml doxycycline for 24 h; conditions: RXFP1 Hu cAMP; for EC50: read-out: Test A EC50
T1 sequence (Q9HBX9 1-757): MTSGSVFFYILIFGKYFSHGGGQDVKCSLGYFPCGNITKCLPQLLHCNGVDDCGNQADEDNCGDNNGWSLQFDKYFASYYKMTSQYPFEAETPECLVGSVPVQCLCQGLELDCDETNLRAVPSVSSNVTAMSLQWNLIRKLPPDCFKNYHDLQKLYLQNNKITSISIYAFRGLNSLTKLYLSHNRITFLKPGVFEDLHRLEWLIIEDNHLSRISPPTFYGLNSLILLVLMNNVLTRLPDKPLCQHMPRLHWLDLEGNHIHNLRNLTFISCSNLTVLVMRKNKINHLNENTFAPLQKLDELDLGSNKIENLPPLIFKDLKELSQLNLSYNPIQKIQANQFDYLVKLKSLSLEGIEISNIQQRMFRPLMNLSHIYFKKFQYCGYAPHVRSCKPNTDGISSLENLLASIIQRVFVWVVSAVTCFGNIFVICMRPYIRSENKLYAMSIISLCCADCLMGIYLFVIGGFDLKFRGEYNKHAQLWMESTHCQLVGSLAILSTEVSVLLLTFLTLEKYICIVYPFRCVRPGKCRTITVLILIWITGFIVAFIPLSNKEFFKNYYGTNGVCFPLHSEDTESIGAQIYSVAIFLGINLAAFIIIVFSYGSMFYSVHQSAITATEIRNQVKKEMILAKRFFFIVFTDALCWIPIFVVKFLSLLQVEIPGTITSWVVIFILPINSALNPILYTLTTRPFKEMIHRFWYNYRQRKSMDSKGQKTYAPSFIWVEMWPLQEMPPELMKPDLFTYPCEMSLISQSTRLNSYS
In short: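 Doxycycline-induced (10 ng/ml, 24 h) CHO-K1 cells stably expressing human RXFP1; cAMP read by competitive HTRF after 2 h at room temperature, with 0.5 mM IBMX final.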

Solubility (Test F) = format: physicochemical; conditions: arithmetic mean if run multiple times
Procedure: The assay was conducted according to the Solubility Assay described in pages 164-167 of Wernevik, J. et al., “A Fully Integrated Assay Panel for Early Drug Metabolism and Pharmacokinetics Profiling”, Assay and Drug Development Technologies, 2020, 18(4), 157-179. Data are reported in Table 36 as solubility ([…]. Where the assay was run multiple times for the same compound, the arithmetic mean is reported.

[2] = Human Liver Microsomal Stability (Test C); format: in vitro ADME; conditions: for microsomal CLint: human, liver microsomes
In short: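 Human liver microsome incubation per the Wernevik et al. integrated DMPK panel protocol. Intrinsic clearance reported as CLint in μl/min/mg protein, averaged arithmetically over repeat runs.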

[3] = Human Plasma Protein Binding (Test B); format: in vitro ADME; conditions: fraction unbound (fu)
In short: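 Human plasma protein binding run per the published Wernevik et al. (2020) integrated DMPK panel protocol. Values are fraction unbound (fu, % free); repeat runs averaged arithmetically.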

[4] = Rat Hepatocyte Stability (Test E); format: in vitro ADME; conditions: geometric mean if run multiple times; for hepatocyte CLint: rat, hepatocytes
In short: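 Run per the published AstraZeneca-type rat hepatocyte stability protocol (Wernevik et al. panel). Values are mean intrinsic clearance, Clint in μl/min/10^6 cells; geometric mean used for repeated runs.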

hepatocyte CLint at 1 µM [1] [µL/min/1e6 cells]	Test A Sinf (human RXFP1) [%]	EC50 (human RXFP1) [nM]	solubility (Solubility (Test F)) [µM]	microsomal CLint [2] [µL/min/mg]	Test B Human Plasma Protein Binding (% free) [3] [% free]	hepatocyte CLint [4] [µL/min/1e6 cells]	Test D Human Hepatocyte Stability Clint ([1]; human hepatocytes) [μL/min/10^6 cells]	Test E Rat Hepatocyte Stability Clint ([4]; rat hepatocytes) [μL/min/10^6 cells]	Test C Human Liver Microsomal Stability Clint ([2]; human liver microsomes) [µL/min/mg]	Compound
5	109	120	880 (≈ 580 µg/mL)	18	<0.30	–	–	–	–	COc1cc(F)c(-c2ccc(-c3nn[nH]n3)cc2)cc1C(=O)N[C@@H]1[C@H]2CC[C@H](C2)[C@@H]1C(=O)Nc1cccc(S(=O)(=O)C(F)(F)F)c1 [Example 325, (1R,2S,3R,4S)-3-(6-Fluoro-4-methoxy-4′-(1H-tetrazol-5-yl)-[1,1′-biphenyl]-3-carboxamido)-N-(3-((trifluoromethyl)sulfonyl)phenyl)bicyclo[2.2.1]heptane-2-carboxamide]
11	117	190	–	< 3	<0.10	–	–	–	–	COc1cc(F)c(-c2ccc(C(=O)O)cc2)cc1C(=O)Nc1ccccc1C(=O)Nc1cccc(S(=O)(=O)C(F)(F)F)c1 [Example 328, 2′-Fluoro-4′-methoxy-5′-((2-((3-((trifluoromethyl)sulfonyl)phenyl)carbamoyl)phenyl)carbamoyl)-[1,1′-biphenyl]-4-carboxylic acid]
13	105	3	340 (≈ 223 µg/mL)	–	0.26	38	–	–	–	COc1cc(F)c(O[C@H]2CC[C@@](C)(C(=O)O)CC2)cc1C(=O)N[C@@H]1CCC[C@@H]1C(=O)Nc1ccc(F)c(S(F)(F)(F)(F)F)c1 [Example 352]
–	118	–	1000 (≈ 519 µg/mL)	–	–	–	5	34	19	CCC(C)CNC(=O)C1C2CCC(C2)C1NC(=O)c1cc(OC2CCC(C(=O)O)CC2)c(F)cc1OC (single isomer, unassigned) [Example 203, (1S,4s)-4-(2-Fluoro-4-methoxy-5-(((1S,2R,3S,4R)-3-(((R*)-2-methylbutyl)carbamoyl)bicyclo[2.2.1]heptan-2-yl)carbamoyl)phenoxy)cyclohexane-1-carboxylic acid]
5.6	102	–	890 (≈ 462 µg/mL)	14	–	57	–	–	–	CCC(C)CNC(=O)C1C2CCC(C2)C1NC(=O)c1cc(OC2CCC(C(=O)O)CC2)c(F)cc1OC (single isomer, unassigned) [Example 202, (1S,4s)-4-(2-Fluoro-4-methoxy-5-(((1S,2R,3S,4R)-3-(((R*)-2-methylbutyl)carbamoyl)bicyclo[2.2.1]heptan-2-yl)carbamoyl)phenoxy)cyclohexane-1-carboxylic acid]
3.7	100	590	55 (≈ 29.3 µg/mL)	32	–	15	–	–	–	COc1cc(F)c(O[C@H]2CC[C@@H](C(=O)O)CC2)cc1C(=O)N[C@@H]1[C@H]2CC[C@H](C2)[C@@H]1C(=O)N[C@H](C)C(C)(C)C [Example 200]
8.4	118	390	21 (≈ 14.8 µg/mL)	27	–	41	–	–	–	COc1cc(F)c(-c2cccc(C[C@@H](C(=O)O)N(C)C)c2)cc1C(=O)N[C@@H]1[C@H]2CC[C@H](C2)[C@@H]1C(=O)Nc1cccc(S(=O)(=O)C(F)(F)F)c1 (racemic) [Example 293]
6.6	99	1200	920 (≈ 475 µg/mL)	12	–	77	–	–	–	COc1cc(F)c(O[C@H]2CC[C@@H](C(=O)O)CC2)cc1C(=O)N[C@@H]1[C@H]2CC[C@H](C2)[C@@H]1C(=O)NCC1(C)CC1 [Example 198]
49	99	> 150	35 (≈ 23.9 µg/mL)	42	–	14	–	–	–	COc1cc(F)c(O[C@H]2CC[C@@](C)(C(=O)O)CC2)cc1C(=O)N[C@H]1[C@@H]2CC[C@@H](C2)[C@H]1C(=O)Nc1ccc(F)c(S(F)(F)(F)(F)F)c1 [Example 206, (1R,4s)-4-(2-Fluoro-5-(((1R,2S,3R,4S)-3-((4-fluoro-3-(pentafluoro-λ6-sulfaneyl)phenyl)carbamoyl)bicyclo[2.2.1]heptan-2-yl)carbamoyl)-4-methoxyphenoxy)-1-methylcyclohexane-1-carboxylic acid]
12	106	1400	1000 (≈ 533 µg/mL)	45	–	28	–	–	–	CCC(CC)CNC(=O)[C@H]1[C@@H]2CC[C@@H](C2)[C@H]1NC(=O)c1cc(O[C@H]2CC[C@@H](C(=O)O)CC2)c(F)cc1OC [Example 197, (1S,4s)-4-(5-(((1S,2R,3S,4R)-3-((2-ethylbutyl)carbamoyl)bicyclo[2.2.1]heptan-2-yl)carbamoyl)-2-fluoro-4-methoxyphenoxy)cyclohexane-1-carboxylic acid]
2.6	105	270	> 1000	< 3	–	18	–	–	–	COc1cc(F)c(O[C@H]2CC[C@@](C)(C(=O)O)CC2)cc1C(=O)N[C@@H]1CCC[C@@H]1C(=O)NCC1(C)CCC1 [Example 67]
